Drawing on patent publication US7846963B2, “2-oxo-heterocyclic compounds and the pharmaceutical compositions comprising the same” (Korea Research Institute of Bioscience and Biotechnology, priority 2003, dated 2010), this text covers IC50 for 40 compounds.

Each structure is given as a SMILES string.

The assay has as its system production of TNF-alpha in RAW 264.7 cells. As to the kind of experiment: Inhibition of TNF-alpha production in LPS-treated RAW 264.7 cells, ELISA of culture supernatant. In kind it is cell-based, mouse. Particulars: Mus musculus, RAW264.7, Table 23, LPS 0.3 μg/ml, 24 hours, compounds up to 10 μM, IC50 unit inferred. Here is the method: To test the inhibiting activity of the compounds prepared from above Examples on the production of TNF-alpha, the concentration of TNF-alpha in the cell supernatant was measured.
Each 200 μl of RAW 264.7 cells (ATCC, USA), a mouse macrophage cell line was seeded onto each well of 96-well microtiter plate (Nunc, Sweden) to the concentration ranging from 1×10^6 cells/ml to 5×10^6 cells/ml, and incubated in DMEM (Dulbeco's modified eagles medium) media containing 5% FBS (fetal bovine serum) at 37° C. in 5% CO2 incubator.
Various concentrations of the compounds of the present invention ranging from […] to 10 μM and LPS (Sigma, USA) in the final concentration of 0.3 μg/ml were treated to activated cell simultaneously. The treated cells were cultured at 37° C. for 24 hours in 5% CO2 incubator and the cultured cells were collected after the cultivation
And then the concentration of TNF-alpha secreted from the culture supernatant of RAW 264.7 cells was determined by ELISA according to the manufacture's instruction (R&D Systems, Minneapolis, Minn.).
The result was shown in Table 23 (AA: IC50's<1, A: IC50's<5, B: IC50's<10, C: IC50's>10).
Background: In an ELISA, binding on a coated surface is turned into a signal by an enzyme label.
In general, IC50 refers to the concentration at which inhibition is half-maximal. Low values mean greater potency in that assay, high ones weaker potency in that assay. With `COc1ccc(CN2CC=C(CCC(=O)NO)C2=O)c(OC)c1` [Example 1, 3-[1-(2,4-Dimethoxybenzyl)-2-oxo-2,5-dihydro-1H-pyrrol-3-yl]-N-hydroxypropionamide], the IC50 was below 10 µM.
As for `O=C(CCC1=CCN(Cc2ccccc2)C1=O)NO` [Example 2, 3-(1-benzyl-2-oxo-2,5-dihydro-1H-pyrrol-3-yl)-N-hydroxy-propionamide], the concentration for half-maximal inhibition (IC50) is below 5 µM.
The result for `O=C(CCC1=CCN(CCc2ccccc2)C1=O)NO` [Example 3, N-hydroxy-3-(2-oxo-1-phenethyl-2,5-dihydro-1H-pyrrol-3-yl)-propionamide] reads below 5 µM; that for `O=C(CCC1=CCN(CCCc2ccccc2)C1=O)NO` [Example 4, N-hydroxy-3-[2-oxo-1-(3-phenyl-propyl)-2,5-dihydro-1H-pyrrol-3-yl]-propionamide], below 1 µM; that for `O=C(CCC1=CCN(CCCCc2ccccc2)C1=O)NO` [Example 5, N-hydroxy-3-[2-oxo-1-(4-phenyl-butyl)-2,5-dihydro-1H-pyrrol-3-yl]-propionamide], below 5 µM.
`Cc1ccccc1CN1CC=C(CCC(=O)NO)C1=O` [Example 6, N-hydroxy-3-[1-(2-methyl-benzyl)-2-oxo-2,5-dihydro-1H-pyrrol-3-yl]-propionamide] showed a concentration for half-maximal inhibition (IC50) below 5 µM.
Compound `Cc1cccc(CN2CC=C(CCC(=O)NO)C2=O)c1` [Example 7, N-hydroxy-3-[1-(3-methyl-benzyl)-2-oxo-2,5-dihydro-1H-pyrrol-3-yl]-propionamide] showed an IC50 below 5 µM.
The result for `Cc1ccc(CN2CC=C(CCC(=O)NO)C2=O)cc1` [Example 8, N-hydroxy-3-[1-(4-methyl-benzyl)-2-oxo-2,5-dihydro-1H-pyrrol-3-yl]-propionamide] reads below 5 µM.
The compound `COc1ccccc1CN1CC=C(CCC(=O)NO)C1=O` [Example 9, N-hydroxy-3-[1-(2-methoxy-benzyl)-2-oxo-2,5-dihydro-1H-pyrrol-3-yl]-propionamide] gave a half-inhibitory concentration (IC50) below 10 µM.
Turning to `COc1cccc(CN2CC=C(CCC(=O)NO)C2=O)c1` [Example 10, N-hydroxy-3-[1-(3-methoxy-benzyl)-2-oxo-2,5-dihydro-1H-pyrrol-3-yl]-propionamide], the IC50 was below 5 µM.
The compound `COc1ccc(CN2CC=C(CCC(=O)NO)C2=O)cc1` [Example 11, N-hydroxy-3-[1-(4-methoxy-benzyl)-2-oxo-2,5-dihydro-1H-pyrrol-3-yl]-propionamide] came in with an IC50 below 1 µM.
The result for `O=C(CCC1=CCN(Cc2ccc(Br)cc2)C1=O)NO` [Example 12, 3-[1-(4-bromo-benzyl)-2-oxo-2,5-dihydro-1H-pyrrol-3-yl]-N-hydroxy-propionamide] reads below 1 µM; that for `O=C(CCC1=CCN(Cc2ccc(Cl)cc2)C1=O)NO` [Example 13, 3-[1-(4-chloro-benzyl)-2-oxo-2,5-dihydro-1H-pyrrol-3-yl]-N-hydroxy-propionamide], below 5 µM; that for `O=C(CCC1=CCN(Cc2ccc(OCc3ccccc3)cc2)C1=O)NO` [Example 14, 3-[1-(4-benzyloxy-benzyl)-2-oxo-2,5-dihydro-1H-pyrrol-3-yl]-N-hydroxy-propionamide], above 10 µM.
Then `O=C(CCC1=CCN(Cc2ccc([N+](=O)[O-])cc2)C1=O)NO` [Example 15, N-hydroxy-3-[1-(4-nitro-benzyl)-2-oxo-2,5-dihydro-1H-pyrrol-3-yl]-propionamide], with below 10 µM.
`COc1ccc(CN2CC=C(CCC(=O)O)C2=O)c(OC)c1` [Example 16, 3-[1-(2,4-dimethoxy-benzyl)-2-oxo-2,5-dihydro-1H-pyrrol-3-yl]-propionic acid] registered an IC50 above 10 µM.
The compound `O=C(O)CCC1=CCN(Cc2ccccc2)C1=O` [Example 17, 3-(1-benzyl-2-oxo-2,5-dihydro-1H-pyrrol-3-yl)-propionic acid] yielded an IC50 above 10 µM.
Compound `O=C(CCC1=CCN(Cc2ccc(NC(=O)c3ccccc3)cc2)C1=O)NO` [Example 18, N-{4-[3-(2-hydroxycarbamoyl-ethyl)-2-oxo-2,5-dihydro-pyrrole-1-yl-methyl]-phenyl}-benzamide] yielded an IC50 above 10 µM.
The result for `Cc1ccc(S(=O)(=O)Nc2ccc(CN3CC=C(CCC(=O)NO)C3=O)cc2)cc1` [Example 19, N-hydroxy-3-{2-oxo-1-[4-(toluene-4-sulfonylamino)-benzyl]-2,5-dihydro-1H-pyrrol-3-yl}-propionamide] reads below 10 µM.
For `O=C(CC1=CCN(Cc2ccccc2)C1=O)NO` [Example 20, 2-(1-benzyl-2-oxo-2,5-dihydro-1H-pyrrol-3-yl)-N-hydroxy-acetamide], the 50% inhibitory concentration (IC50) is above 10 µM.
Then `COc1ccc(CN2CC=C(CC(=O)NO)C2=O)c(OC)c1` [Example 21, 2-[1-(2,4-dimethoxy-benzyl)-2-oxo-2,5-dihydro-1H-pyrrol-3-yl]-N-hydroxy-acetamide], with above 10 µM; and `O=C(CC1=CCN(CCc2ccccc2)C1=O)NO` [Example 22, N-hydroxy-2-(2-oxo-1-phenethyl-2,5-dihydro-1H-pyrrol-3-yl)-acetamide], with above 10 µM; and `O=C(CC1=CCN(CCCCc2ccccc2)C1=O)NO` [Example 23, N-hydroxy-2-[2-oxo-1-(4-phenyl-butyl)-2,5-dihydro-1H-pyrrol-3-yl]-acetamide], with above 10 µM.
The compound `O=C(CC1CCN(Cc2ccccc2)C1=O)NO` (stereo not shown) [Example 25, 2-(1-benzyl-2-oxo-pyrrolidin-3-yl)-N-hydroxy-acetamide] came in with an IC50 above 10 µM.
Then `COc1ccc(CN2CCC(CC(=O)NO)C2=O)c(OC)c1` (stereo not shown) [Example 26, 2-[1-(2,4-dimethoxy-benzyl)-2-oxo-pyrrolidin-3-yl]-N-hydroxy-acetamide], with above 10 µM.
`O=C(CC1CCN(CCc2ccccc2)C1=O)NO` (stereo not shown) [Example 27, N-hydroxy-2-(2-oxo-1-phenethyl-pyrrolidin-3-yl)-acetamide]: the IC50 is above 10 µM.
The compound `O=C(CCC1=CCN(CCc2ccccc2F)C1=O)NO` [Example 28, 3-{1-[2-(2-fluoro-phenyl)-ethyl]-2-oxo-2,5-dihydro-1H-pyrrol-3-yl}-N-hydroxy-propionamide] gave an IC50 below 5 µM.
`O=C(CCC1=CCN(CCc2cccc(F)c2)C1=O)NO` [Example 29, 3-{1-[2-(3-fluoro-phenyl)-ethyl]-2-oxo-2,5-dihydro-1H-pyrrol-3-yl}-N-hydroxy-propionamide] showed an IC50 below 5 µM.
The result for `O=C(CCC1=CCN(CCc2ccc(F)cc2)C1=O)NO` [Example 30, 3-{1-[2-(4-fluoro-phenyl)-ethyl]-2-oxo-2,5-dihydro-1H-pyrrol-3-yl}-N-hydroxy-propionamide] reads below 5 µM; that for `O=C(CCC1=CCN(CCc2ccccc2[N+](=O)[O-])C1=O)NO` [Example 31, N-hydroxy-3-{1-[2-(2-nitro-phenyl)-ethyl]-2-oxo-2,5-dihydro-1H-pyrrol-3-yl}-propionamide], above 10 µM.
The result for `O=C(CCC1=CCN(CCc2cccc([N+](=O)[O-])c2)C1=O)NO` [Example 32, N-hydroxy-3-{1-[2-(3-nitro-phenyl)-ethyl]-2-oxo-2,5-dihydro-1H-pyrrol-3-yl}-propionamide] reads above 10 µM; that for `O=C(CCC1=CCN(CCc2ccc([N+](=O)[O-])cc2)C1=O)NO` [Example 33, N-hydroxy-3-{1-[2-(4-nitro-phenyl)-ethyl]-2-oxo-2,5-dihydro-1H-pyrrol-3-yl}-propionamide], below 10 µM; that for `O=C(CCC1=CCN(CCc2ccccc2Br)C1=O)NO` [Example 34, 3-{1-[2-(2-bromo-phenyl)-ethyl]-2-oxo-2,5-dihydro-1H-pyrrol-3-yl}-N-hydroxy-propionamide], below 5 µM.
Then `O=C(CCC1=CCN(CCc2ccc(Br)cc2)C1=O)NO` [Example 35, 3-{1-[2-(4-bromo-phenyl)-ethyl]-2-oxo-2,5-dihydro-1H-pyrrol-3-yl}-N-hydroxy-propionamide], with below 5 µM; and `Cc1ccc(CCCN2CC=C(CCC(=O)NO)C2=O)cc1` [Example 40, N-hydroxy-3-[2-oxo-1-(3-p-tolyl-propyl)-2,5-dihydro-1H-pyrrol-3-yl]-propionamide], with below 1 µM; and `CC(C)c1ccc(CCCN2CC=C(CCC(=O)NO)C2=O)cc1` [Example 43, N-hydroxy-3-{1-[3-(4-isopropyl-phenyl)-propyl]-2-oxo-2,5-dihydro-1H-pyrrol-3-yl]-propionamide], with below 5 µM.
As to `O=C(CCC1=CCN(CCCc2ccc(Br)cc2)C1=O)NO` [Example 44, 3-{1-[3-(4-bromo-phenyl)-propyl]-2-oxo-2,5-dihydro-1H-pyrrol-3-yl]-N-hydroxy-propionamide], the concentration for half-maximal inhibition (IC50) was below 5 µM.
Then `O=C(CCC1=CCN(CCCc2ccc(Cl)cc2)C1=O)NO` [Example 45, 3-{1-[3-(4-chloro-phenyl)-propyl]-2-oxo-2,5-dihydro-1H-pyrrol-3-yl]-N-hydroxy-propionamide], with below 5 µM.
Then `COc1ccc(CCCN2CC=C(CCC(=O)NO)C2=O)cc1` [Example 46, N-hydroxy-3-{1-[3-(4-methoxy-phenyl)-propyl]-2-oxo-2,5-dihydro-1H-pyrrol-3-yl]-propionamide], with below 10 µM.
The result for `O=C(CCC1=CCN(Cc2ccc3ccccc3c2)C1=O)NO` [Example 49, N-hydroxy-3-(1-naphthalene-2-ylmethyl-2-oxo-2,5-dihydro-1H-pyrrol-3-yl)-propionamide] reads below 1 µM.
